Here are results for six compounds from ChEMBL document CHEMBL4340561, “Application of the concept of oxime library screening by mass spectrometry (MS) binding assays to pyrrolidine-3-carboxylic acid derivatives as potential inhibitors of γ-aminobutyric acid transporter 1 (GAT1)” (Bioorg Med Chem, 2019).

For orientation: Ki means a dissociation constant, usually derived from enzyme kinetics or from competition with a known ligand. The IC50 is the concentration needed to halve the response being measured. One may read the Kd as the free concentration of one partner at which half of the binding sites on the other are occupied at equilibrium, for simple one-to-one binding.

A value given as a limit tells only on which side of the number the result lay.

Assay [1] concerns the target T1, Sodium- and chloride-dependent GABA transporter 1 (Mus musculus, UniProt P31648). The experiment in a line: Inhibition of NO711 binding to mouse GAT1 expressed in HEK293 cell membranes assessed as reduction in NO711 binding at incubated for 4 hrs in presence of NO711 by LC-ESI-MS/MS analysis relative to control.
Assay [2] concerns Sodium- and chloride-dependent GABA transporter 2 (Mus musculus). The experiment in a line: Inhibition of mouse GAT3 expressed in HEK293 cells assessed as remaining [3H]GABA uptake at 100 uM preincubated for 25 mins followed by [3H]GABA addition and measured after 4 mins by liquid scintillation counting method.
Assay [3] addresses T1, Sodium- and chloride-dependent GABA transporter 1. The experiment in a line: Inhibition of mouse GAT1 expressed in HEK293 cells assessed as reduction in [3H]GABA uptake preincubated for 25 mins followed by [3H]GABA addition and measured after 4 mins by liquid scintillation counting method. Type of assay: cell-based.
Assay [4] concerns the target T2, GABA transporter 4 (Mus musculus) (UniProt P31650).
T2 sequence (whole entry): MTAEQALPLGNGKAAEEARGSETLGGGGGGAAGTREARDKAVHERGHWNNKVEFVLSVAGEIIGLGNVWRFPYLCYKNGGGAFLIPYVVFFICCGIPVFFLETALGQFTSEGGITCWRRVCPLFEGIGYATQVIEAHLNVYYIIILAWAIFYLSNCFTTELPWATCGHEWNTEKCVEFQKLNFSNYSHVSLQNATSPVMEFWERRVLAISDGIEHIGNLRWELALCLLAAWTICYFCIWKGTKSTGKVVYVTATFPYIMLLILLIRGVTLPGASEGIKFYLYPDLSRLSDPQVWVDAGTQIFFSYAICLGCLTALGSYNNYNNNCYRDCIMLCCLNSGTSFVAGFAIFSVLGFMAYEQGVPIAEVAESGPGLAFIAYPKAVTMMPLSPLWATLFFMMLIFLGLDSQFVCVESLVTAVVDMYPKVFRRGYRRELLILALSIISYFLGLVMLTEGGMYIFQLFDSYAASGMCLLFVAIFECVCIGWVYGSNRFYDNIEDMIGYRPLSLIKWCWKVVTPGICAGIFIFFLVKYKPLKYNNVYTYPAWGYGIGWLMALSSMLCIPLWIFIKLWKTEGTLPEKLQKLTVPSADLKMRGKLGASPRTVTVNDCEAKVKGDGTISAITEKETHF
The experiment in a line: Inhibition of mouse GAT4 expressed in HEK293 cells assessed as remaining [3H]GABA uptake at 100 uM preincubated for 25 mins followed by [3H]GABA addition and measured after 4 mins by liquid scintillation counting method. It counts as cell-based.

The target in another assay is T3, GABA transporter 4 (Mus musculus, UniProt P31650).
T3 sequence (P31650 whole entry): T2 sequence (whole entry)
The experiment in a line: Inhibition of mouse GAT4 expressed in HEK293 cells assessed as reduction in [3H]GABA uptake preincubated for 25 mins followed by [3H]GABA addition and measured after 4 mins by liquid scintillation counting method. It counts as cell-based.

Assay [5] concerns Sodium- and chloride-dependent betaine transporter (Mus musculus). The experiment in a line: Inhibition of mouse GAT2 expressed in HEK293 cells assessed as remaining [3H]GABA uptake at 100 uM preincubated for 25 mins followed by [3H]GABA addition and measured after 10 mins by liquid scintillation counting method relative to control.

As for `COc1cccc(F)c1-c1ccccc1/C=N/OCCN1CCC(C(=O)O)C1` (stereo not given), in assay [1], the Ki is 407 nM. Also, the figures for the Activity in assay [2], in assay [4] and in assay [5] were 93%, 89% and 86%, respectively. In addition, the concentration for half-maximal inhibition (IC50) in assay [3] is 1.91 µM; on GABA transporter 4, not below 100 µM.

Regarding `O=C(O)CC1CCNC1` (stereo not given), the half-maximal inhibitory concentration (IC50) in assay [3] was 4.07 µM.

As for `O=C(O)C1=CCCN(CCON=C(c2ccccc2)c2ccccc2)C1`, the Kd in assay [1] was found to be 26.5 nM.

Turning to `O=C(O)C1CCN(CCO/N=C/c2ccccc2-c2ccc(Cl)cc2Cl)C1` (stereo not given), the Ki in assay [1] is 389 nM. The values for the Activity in assay [2] and in assay [4] were 62% and 56%, respectively. In addition, the values for the half-inhibitory concentration (IC50) (in assay [3]; on GABA transporter 4) were 2.29 µM and not below 100 µM, respectively.

Consider `O=C(O)C1CCNC1` (stereo not given), for which, in assay [3], the IC50 is 67.6 µM.

On to `O=C(O)C1CCN(CCO/N=C/c2ccccc2-c2ccc(F)cc2Cl)C1` (stereo not given), for which the Ki in assay [1] was 692 nM. Further, the Activity in assay [2] turned out to be 75%; in assay [4], 66%; in assay [5] it was 52%. Besides, the concentration for half-maximal inhibition (IC50) was 4.79 µM in assay [3] and not below 100 µM at GABA transporter 4.
